Source: patent US11331299B2, “Medicinal use of serrulatane diterpenes” (The University of Sydney, priority 2016, dated 2022)
Where two headings read alike, the source gives them in different places.

What was measured:
ASH1L (h) bromodomain = biological target: T1, ASH1L (h) bromodomain (Homo sapiens, UniProt Q9NR48); assay: Epigenetic binding assay, Bromodomain; conditions: for inhibition at 10 µM: read-out: % Inhibition of Control Specific Binding
T1 construct: ASH1L (h) bromodomain

Sirtuin 7 (h) = biological target: T2, Sirtuin 7 (h) (Homo sapiens, UniProt Q9NRC8); assay: Epigenetic enzyme assay, Sirtuins; assay type: biochemical; conditions: 10 μM; read-out: % Inhibition of Control Values
T2 sequence (Q9NRC8 1-400): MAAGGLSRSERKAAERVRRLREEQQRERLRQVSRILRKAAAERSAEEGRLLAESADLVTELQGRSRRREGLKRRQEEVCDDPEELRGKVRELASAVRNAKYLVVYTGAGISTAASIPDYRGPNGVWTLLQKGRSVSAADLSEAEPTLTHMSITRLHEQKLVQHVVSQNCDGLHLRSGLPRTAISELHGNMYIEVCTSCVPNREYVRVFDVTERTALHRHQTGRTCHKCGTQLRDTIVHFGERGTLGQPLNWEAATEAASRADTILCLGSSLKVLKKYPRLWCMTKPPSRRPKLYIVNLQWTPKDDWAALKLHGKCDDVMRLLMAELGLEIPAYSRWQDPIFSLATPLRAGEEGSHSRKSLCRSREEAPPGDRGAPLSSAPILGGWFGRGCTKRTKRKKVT

hDNMT3a = hDNMT3a (Homo sapiens, UniProt Q9Y6K1); assay: Epigenetic enzyme assay, DNA methyltransferases (DNMTs); assay type: biochemical; conditions: for inhibition at 10 µM: read-out: % Inhibition of Control Values
Chain of hDNMT3a (Q9Y6K1 whole entry, looked up, the tested form may be a part): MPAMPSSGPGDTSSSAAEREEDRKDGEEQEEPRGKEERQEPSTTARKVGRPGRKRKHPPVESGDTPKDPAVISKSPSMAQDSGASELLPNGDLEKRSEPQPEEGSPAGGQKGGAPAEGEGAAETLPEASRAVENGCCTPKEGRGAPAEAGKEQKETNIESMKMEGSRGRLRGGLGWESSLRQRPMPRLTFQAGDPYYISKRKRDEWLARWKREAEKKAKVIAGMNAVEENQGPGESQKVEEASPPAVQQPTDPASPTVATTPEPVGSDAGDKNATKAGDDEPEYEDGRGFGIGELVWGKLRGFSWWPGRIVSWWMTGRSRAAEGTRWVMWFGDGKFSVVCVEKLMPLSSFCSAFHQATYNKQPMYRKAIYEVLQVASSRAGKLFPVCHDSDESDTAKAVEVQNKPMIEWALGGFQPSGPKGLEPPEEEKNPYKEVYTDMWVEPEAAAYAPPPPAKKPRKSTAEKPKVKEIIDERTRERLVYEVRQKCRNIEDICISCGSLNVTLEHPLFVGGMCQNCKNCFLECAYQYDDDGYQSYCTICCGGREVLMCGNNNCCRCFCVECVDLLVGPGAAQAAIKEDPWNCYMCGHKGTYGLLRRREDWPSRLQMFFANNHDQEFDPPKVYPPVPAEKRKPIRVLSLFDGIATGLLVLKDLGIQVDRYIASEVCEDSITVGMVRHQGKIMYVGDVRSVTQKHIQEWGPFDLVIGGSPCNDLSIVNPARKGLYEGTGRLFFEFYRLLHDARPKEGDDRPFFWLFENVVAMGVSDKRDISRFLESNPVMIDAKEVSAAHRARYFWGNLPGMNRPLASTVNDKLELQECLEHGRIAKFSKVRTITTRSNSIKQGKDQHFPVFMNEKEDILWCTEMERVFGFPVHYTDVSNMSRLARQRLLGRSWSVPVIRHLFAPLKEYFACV

SP140 (h) PHD domain = biological target: T3, SP140 (h) PHD domain (Homo sapiens, UniProt Q13342); assay: Epigenetic binding assay, PHD domain; conditions: for inhibition at 10 µM: read-out: % Inhibition of Control Specific Binding
T3 construct: Eurofins CEREP (France), contract laboratory
T3 sequence (Q13342 690-736 limits assumed): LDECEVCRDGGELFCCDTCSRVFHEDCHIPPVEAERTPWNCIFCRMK

HDAC10 (h) = biological target: T4, HDAC10 (h) (Homo sapiens, UniProt Q969S8); assay: Epigenetic enzyme assay, Histone deacetylase (HDACs); assay type: biochemical; conditions: read-out: % Inhibition of Control Values
T4 sequence (Q969S8 1-669): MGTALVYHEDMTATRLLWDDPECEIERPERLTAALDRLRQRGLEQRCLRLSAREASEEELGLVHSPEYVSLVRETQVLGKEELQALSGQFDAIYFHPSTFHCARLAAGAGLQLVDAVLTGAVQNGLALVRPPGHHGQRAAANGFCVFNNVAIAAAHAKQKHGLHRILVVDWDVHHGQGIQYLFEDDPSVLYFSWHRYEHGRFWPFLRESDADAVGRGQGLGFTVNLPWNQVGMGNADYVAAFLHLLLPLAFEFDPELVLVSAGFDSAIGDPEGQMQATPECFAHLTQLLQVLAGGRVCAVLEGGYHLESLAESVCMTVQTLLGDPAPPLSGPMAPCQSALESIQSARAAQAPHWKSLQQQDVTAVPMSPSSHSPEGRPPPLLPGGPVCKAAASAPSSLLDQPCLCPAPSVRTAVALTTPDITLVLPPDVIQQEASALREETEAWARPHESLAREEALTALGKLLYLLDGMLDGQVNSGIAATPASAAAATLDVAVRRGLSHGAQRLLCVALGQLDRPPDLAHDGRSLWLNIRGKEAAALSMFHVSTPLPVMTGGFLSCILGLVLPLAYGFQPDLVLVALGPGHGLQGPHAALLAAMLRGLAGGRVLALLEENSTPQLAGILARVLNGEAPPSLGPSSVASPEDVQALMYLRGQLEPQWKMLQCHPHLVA

[1] = test system: A204 (soft tissue sarcoma); assay: OncoPanel cell proliferation assay (10-day); assay type: cell-based; conditions: Homo sapiens; for EC50: read-out: Cell Count EC50; for IC50: read-out: Cell Count IC50
TRIM 33 (h) PHD domain = biological target: T5, TRIM 33 (h) PHD domain (Homo sapiens, UniProt Q9UPN9); assay: Epigenetic binding assay, PHD domain; conditions: for inhibition at 10 µM: read-out: % Inhibition of Control Specific Binding
T5 construct: Eurofins CEREP (France), contract laboratory
T5 sequence (Q9UPN9 887-934 limits assumed): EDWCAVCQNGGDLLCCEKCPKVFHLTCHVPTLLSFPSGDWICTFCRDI

[2] = A204, Soft Tissue - Sarcoma, read-out: Cell Count GI50

Row | SMILES | inhibition at 10 µM (ASH1L (h) bromodomain; 10 μM) | inhibition at 10 µM (Sirtuin 7 (h)) | inhibition at 10 µM (hDNMT3a) | inhibition at 10 µM (SP140 (h) PHD domain; 10 μM) | inhibition at 10 µM (HDAC10 (h)) | EC50 ([1]; A204, Soft Tissue - Sarcoma) | GI50 [1, 2] | IC50 ([1]; A204, Soft Tissue - Sarcoma) | inhibition at 10 µM (TRIM 33 (h) PHD domain) | also measured
1 | CC(C)=CCC[C@H](CO)[C@@H]1CC[C@@H](C)c2c1cc(C)c(O)c2O [Compound 1, 7,8,18-trihydroxyserrulat-14-ene] | 95% | 7% | 3% | 74% | 1% | 0.52 µM | 0.52 µM | 0.54 µM | 59% | % Inhibition of Control Specific Binding (ASH1L (h) bromodomain; 10 μM): significant inhibitory activity; inhibition of binding, 1st (ASH1L (h) bromodomain; 3.0E−05M): 100.6; inhibition of binding, 2nd (ASH1L (h) bromodomain; 3.0E−05M): 99.6; inhibition of binding, Mean (ASH1L (h) bromodomain; 3.0E−05M): 100.1; inhibition of binding, 1st (ASH1L (h) bromodomain; 3.0E−06M): 17.0; inhibition of binding, 2nd (ASH1L (h) bromodomain; 3.0E−06M): 28.0; inhibition of binding, Mean (ASH1L (h) bromodomain; 3.0E−06M): 22.5; inhibition of binding, 1st (ASH1L (h) bromodomain; 3.0E−07M): −0.2; inhibition of binding, 2nd (ASH1L (h) bromodomain; 3.0E−07M): −2.9; inhibition of binding, Mean (ASH1L (h) bromodomain; 3.0E−07M): −1.6; inhibition of binding, 1st (ASH1L (h) bromodomain; 3.0E−08M): −12.3; inhibition of binding, 2nd (ASH1L (h) bromodomain; 3.0E−08M): 1.8; inhibition of binding, Mean (ASH1L (h) bromodomain; 3.0E−08M): −5.2; inhibition of binding, 1st (ASH1L (h) bromodomain; 3.0E−09M): −2.6; inhibition of binding, 2nd (ASH1L (h) bromodomain; 3.0E−09M): −8.2; inhibition of binding, Mean (ASH1L (h) bromodomain; 3.0E−09M): −5.4; IC50 (ASH1L (h) bromodomain; Table 9, inhibition/concentration-response curve, read-out: IC50): 4.2 µM; % Inhibition of Control Specific Binding (SP140 (h) PHD domain; 10 μM): good inhibitory activity; IC50 (SP140 (h) PHD domain; Table 9, inhibition/concentration-response curve): 4.6 µM; % Inhibition of Control Specific Binding (TRIM 33 (h) PHD domain; 10 μM): good inhibitory activity
2 | CC(C)=CCC[C@@H]1C(O)Oc2c(C)cc(O)c3c2[C@H]1CC[C@H]3C (stereo partly shown) [Compound 2, 5,18-epoxyserrulat-14-en-8,18-diol] | 59% | -2% | 3% | 0% | 3% | 8.46 µM | 8.5 µM | 8.54 µM | 3% | 
3 | Nc1ncnc2c1ncn2[C@@H]1O[C@H](CSCC[C@H](N)C(=O)O)[C@@H](O)[C@H]1O [SAH] |  |  |  |  |  |  |  |  |  | IC50 (hDNMT3a; read-out: Reference IC50): 0.052 µM
4 | CC(C)=CCC[C@@H]1COc2c(C)cc(O)c3c2[C@H]1CC[C@H]3C [Compound 3, 5,18-epoxy-8-hydroxyserrulat-14-ene] | 42% | -8% | -31% | 2% | 6% |  |  |  | -2% | 
5 | CC(C)=CCC[C@H](C)[C@@H]1CC[C@@H](C)c2c1cc(C)c(O)c2O [Compound 4, 7,8-dihydroxyserrulat-14-ene] |  |  |  |  |  | 0.72 µM | 0.68 µM | 0.72 µM |  | GI50 ([1]; A204, read-out: GI50): 0.684 µM
